Converted amounts (≈) assume the structure as drawn. Like-named read-outs stand apart in the source and are kept apart here.
Columns and labels:
HIV (HTLV-IIIB strain) = experiment: microbe, parasite or virus in culture; type: cell-based; conditions: Human immunodeficiency virus 1, IIIB, MT4, 120 h
Summary of the method: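 MT-4 cells (3.5×10^4 per well) were infected with HIV at 60 pfu per well in the presence of diluted compound and incubated for 5 days at 37° C. Surviving cells were then measured by MTT reduction, with the formazan dissolved in acidified isopropanol containing Triton X-100.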

[1] = cytotoxicity in MT-4 cells (MTT, culture medium in place of HIV); type: cell-based; conditions: human
Summary of the method: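 MT-4 cells (3.5×10^4 per well) exposed to diluted compound with culture medium added instead of HIV, 5 days at 37° C in CO2. MTT added for 1 h, formazan dissolved in Triton X-100/acidified isopropanol. OD read at 560 nm (690 nm reference) and compared with control.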

[2] = molecular target: T1, purified recombinant HIV-1 reverse transcriptase (Human immunodeficiency virus type 1 group M subtype B, UniProt P04585); experiment: reverse transcriptase inhibition, poly(rA)/(dT) template primer, [3H]dTTP uptake; type: biochemical
T1 construct: purified recombinant HIV-1 reverse transcriptase; made in house; host or cells: Escherichia coli
Summary of the method: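 Inhibition reported as percent reduction of [3H]dTTP incorporation relative to solvent control, after 1 h at 37 °C at pH 8.3. Recombinant RT from E. coli, poly(rA) template with oligo(dT) primer, 4 μM unlabeled dTTP as substrate; product collected on DEAE filter mats.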

[3] = MT-4 cells, 60 pfu HIV per well, 37° C., 5 days, MTT, Tables 1 and 2, read-out: EC50
[4] = MT-4 cells, no virus, 37° C., 5 days, MTT, Table 3, read-out: CC50

With `CC(C)c1nc(CCOC(N)=O)n(CCOC(N)=O)c1Sc1cc(Cl)cc(Cl)c1` [Compound I-147, 1,2-di-(2-carbamoyloxyethyl)-5-(3,5-dichlorophenylthio)-4-isopropyl-1H-imidazole] the EC50 (HIV (HTLV-IIIB strain); [3]) was 0.005 µg/mL (≈ 0.0108 µM), the CC50 at 120 h ([1]; mt-4 cells) was 50 to 100 µg/mL (≈ 108 to 217 µM) and the IC50 [2] was 4.33 µM.
Work on `CNC(=S)OCc1nc(C(C)C)c(Sc2cc(Cl)cc(Cl)c2)n1C` [Compound I-44, 5-(3,5-dichlorophenylthio)-4-isopropyl-1-methyl-2-(N-methylthiocarbamoyl)oxymethyl-1H-imidazole] yielded an EC50 (HIV (HTLV-IIIB strain); [3]) of 1 µg/mL (≈ 2.47 µM), a CC50 at 120 h [1, 4] of 1 to 10 µg/mL (≈ 2.47 to 24.7 µM) and an IC50 [2] of 107 µM.
Work on `CC(C)c1nc(CCO)n(C)c1Sc1cc(Cl)cc(Cl)c1` [Compound I-81a, 2-[5-(3,5-dichlorophenylthio)-4-isopropyl-1-methyl-1H-imidazol-2-yl]ethanol] yielded an EC50 (HIV (HTLV-IIIB strain)) of 0.001 µg/mL (≈ 0.0029 µM), a CC50 at 120 h [1, 4] of 12.5 µg/mL (≈ 36.2 µM) and an IC50 [2] of 0.405 µM.
In the case of `Cc1cc(C)cc(Sc2c(C(C)C)nc(C=NO)n2C)c1` [Compound I-10, 5-(3,5-dimethylphenylthio)-4-isopropyl-1-methyl-1H-imidazole-2-carbaldehyde oxime], the EC50 (HIV (HTLV-IIIB strain); [3]) is reported as 1 µg/mL (≈ 3.3 µM), the CC50 at 120 h [1, 4] is reported as greater than 100 µg/mL and the IC50 [2] is reported as greater than 330 µM.
For `CC(C)c1nc(CO)n(C(C)C)c1Sc1cc(Cl)cc(Cl)c1` [Compound I-27, [5-(3,5-dichlorophenylthio)-1,4-diisopropyl-1H-imidazol-2-yl]methanol], the EC50 (HIV (HTLV-IIIB strain); [3]) was 0.03 µg/mL (≈ 0.0835 µM), the CC50 at 120 h [1, 4] was 10 to 100 µg/mL (≈ 27.8 to 278 µM) and the IC50 [2] was 3.34 µM.
`CC(O)Cn1c(CO)nc(C(C)C)c1Sc1cc(Cl)cc(Cl)c1` (stereo not drawn) [I-32', [1-(2-hydroxypropyl)-5-(3,5-dichlorophenylthio)-4-isopropyl-1H-imidazol-2-yl]methanol] showed an EC50 (HIV (HTLV-IIIB strain); [3]) of 0.002 to 0.004 µg/mL (≈ 0.00533 to 0.0107 µM), a CC50 at 120 h [1, 4] of 12.5 to 25 µg/mL (≈ 33.3 to 66.6 µM) and an IC50 [2] of 1.52 µM.
Work on `CCn1c(CO)nc(C(C)C)c1Sc1cc(F)cc(F)c1` [Compound I-36, [5-(3,5-difluorophenylthio)-1-ethyl-4-isopropyl-1H-imidazol-2-yl]methanol] yielded an EC50 (HIV (HTLV-IIIB strain)) of 0.002 µg/mL (≈ 0.0064 µM), a CC50 at 120 h [1, 4] of 10 to 100 µg/mL (≈ 32 to 320 µM) and an IC50 [2] of 0.576 µM.
Work on `CC(C)c1nc(CN(C)C)n(C)c1Sc1cc(Cl)cc(Cl)c1` [Compound I-78, 5-(3,5-dichlorophenylthio)-2-dimethylaminomethyl-4-isopropyl-1-methyl-1H-imidazole] yielded an EC50 (HIV (HTLV-IIIB strain); [3]) of 1 µg/mL (≈ 2.79 µM), a CC50 at 120 h [1, 4] of 1 to 10 µg/mL (≈ 2.79 to 27.9 µM) and an IC50 [2] of 129 µM.
`CCOC(=O)Cn1c(CCCOCc2ccccc2)nc(C(C)C)c1Sc1cc(Cl)cc(Cl)c1` [Compound 136d, (2-(3-benzyloxypropyl)-5-(3,5-dichlorophenylthio)-4-isopropyl-1H-imidazol-1-yl)-ethyl acetate] showed an EC50 (HIV (HTLV-IIIB strain); [3]) of 0.5 µg/mL, a CC50 at 120 h ([1]; mt-4 cells) of 12.5 µg/mL and an IC50 [2] greater than 192 µM.
In the case of `CC(C)c1nc(CCO)n(Cc2ccccc2N)c1Sc1cc(Cl)cc(Cl)c1` [Compound I-143], the EC50 (HIV (HTLV-IIIB strain); [3]) is reported as 0.008 µg/mL (≈ 0.0183 µM), the CC50 at 120 h ([1]; mt-4 cells) is reported as 12.5 µg/mL (≈ 28.6 µM) and the IC50 [2] is reported as 77 µM.
`CC(C)c1nc(CC(N)=O)n(C)c1Sc1cc(Cl)cc(Cl)c1` [Compound I-135, 2-[5-(3,5-dichlorophenylthio)-4-isopropyl-1-methyl-1H-imidazol-2-yl] acetamide] showed an EC50 (HIV (HTLV-IIIB strain); [3]) of 0.016 to 0.03 µg/mL (≈ 0.0447 to 0.0837 µM), a CC50 at 120 h ([1]; mt-4 cells) of 25 to 50 µg/mL (≈ 69.8 to 140 µM) and an IC50 [2] of 10.6 µM.
With `Cc1cc(C)cc(Sc2c(C(C)C)nc(C)n2C)c1` [Compound I-2, 5-(3,5-dimethylphenylthio)-1,2-dimethyl-4-isopropyl-1H-imidazole] the EC50 (HIV (HTLV-IIIB strain); [3]) was 0.008 µg/mL (≈ 0.0292 µM), the CC50 at 120 h [1, 4] was 25 µg/mL (≈ 91.1 µM) and the IC50 [2] was 7.65 µM.
With `CCn1c(COC(N)=O)nc(C(C)C)c1Sc1cccc(F)c1` [Compound I-57, 2-carbamoyloxymethyl-1-ethyl-5-(3-fluorophenylthio)-4-isopropylethyl-1H-imidazole] the EC50 (HIV (HTLV-IIIB strain)) was 0.0005 to 0.001 µg/mL (≈ 0.00148 to 0.00296 µM), the CC50 at 120 h [1, 4] was 25 to 50 µg/mL (≈ 74.1 to 148 µM) and the IC50 ([2]; read-out: RT IC50, pH 8.3, 37° C., 1 hour, Tables 5 and 6) was 0.119 µM.
Work on `CC(C)c1nc(CN)n(C)c1Sc1cccc(Cl)c1.Cl` [Compound I-69, 2-aminomethyl-5-(3-chlorophenylthio)-4-isopropyl-1-methyl-1H-imidazole hydrochloride] yielded an EC50 (HIV (HTLV-IIIB strain); [3]) of 0.25 µg/mL, a CC50 at 120 h ([1]; mt-4 cells) of 6.3 µg/mL and an IC50 [2] of 6.92 µM.
For `CC(C)c1nc(CO)n(CCCCCCc2ccccc2)c1Sc1cc(Cl)cc(Cl)c1` [Compound I-125, 5-(3,5-dichlorophenylthio)-2-hydroxylmethyl-4-isopropyl-1-(6-phenlylhexyl)-1H-imidazole], the EC50 (HIV (HTLV-IIIB strain); [3]) was 0.5 to 1 µg/mL (≈ 1.05 to 2.09 µM), the CC50 at 120 h ([1]; mt-4 cells) was 12.5 µg/mL (≈ 26.2 µM) and the IC50 [2] was greater than 209 µM.
Work on `CC(C)c1nc(CC(=O)O)n(C)c1Sc1cc(Cl)cc(Cl)c1` [Compound I-80, [5-(3,5-dichlorophenylthio)-4-isopropyl-1-nethyl-1H-imidazol-2-yl]acetic acid] yielded an EC50 (HIV (HTLV-IIIB strain); [3]) of 0.5 to 1 µg/mL (≈ 1.39 to 2.78 µM), a CC50 at 120 h [1, 4] of 10 to 100 µg/mL (≈ 27.8 to 278 µM) and an IC50 [2] of 3.06 µM.

Reference: patent publication US6147097A, “Imidazole derivatives as anti-HIV agents” (Shionogi & Co., Ltd., priority 1994, dated 2000)
